Measurements reported in patent US10577399B2, “Modified lantibiotics and methods of making and using the modified lantibiotics” (priority 2016, dated 2020).
Values after ≈ are worked out from the molar mass of the structure shown. Read-outs that look alike come from different tables or passages of the source. No end group written: not given here.

Columns and labels:
M. luteus ATCC 10240 = assay type: cell-based, Micrococcus luteus; conditions: for MIC (μg/mL) M. luteus: Table 7, chemically modified analogs; for M. luteus ATCC 10240 MIC / M. luteus ATCC 10240 MLC: Table 11
Method: (§1) Minimum Inhibitory Concentrations (MICs) were determined according to previously published protocol^31. A stock solution of the antibiotics tested was first suspended in 50% acetonitrile (ACN) at a concentration 640 μg/mL. This stock was subsequently diluted 2-fold until a final concentration 0.156 μg/mL was reached. Subsequently, 10 μl of each dilution was placed into a well on a 96 well microtiter plate. M. luteus ATCC 10240, S. pneumoniae, and B. subtilis PY79 were grown overnight in THyex at 37° C. Cultures were diluted in the morning to 0.1 OD600 and allowed to grow to 0.6 OD600. This culture was diluted a 100-fold in fresh THyex media and then 400 μl of this culture was added to 10 mL of fresh THyex. The suspension contains approximately 10^5 colony forming units (CFUs). The bacterial suspension (190 μL) was added to each well containing 10 μL of antibiotic suspension or solvent blank. […] Following the 15 minute pretreatment, 190 μL was added to each well as described above. The MIC is described as the […] concentration of antibiotic that prevented visible growth after 24 hours.
FIG. 11 illustrates the bioactivity of various core peptide mutants of mutacin 1130. The activity of the core mutant peptides is expressed as a ratio of the area of the zone of inhibition of each mutant strain to the area of the zone of inhibition of the wild-type strain against indicator strain of Micrococcus luteus. […] The deferred antagonism assay is an overlay assay of the indicator strain onto plates containing heat killed colonies of the mutacin producer strain after growing overnight. Core peptide mutants having inhibitory activity were isolated and the purified products were further evaluated by a standard minimum inhibitory concentration (MIC) assay.

S. pneumoniae ATCC 27336 = assay type: cell-based, Streptococcus pneumoniae; conditions: for MIC (μg/mL) S. pneumoniae: Table 7, S. pneumoniae ATCC 27336; for S. pneumonia ATCC 27336 MIC / S. pneumonia ATCC 27336 MLC: Table 11
Method: as §1, with “hours. […]” for “hours.”

S. aureus ATCC 25923 = experiment: MIC/MLC assay against S. aureus; assay type: cell-based, Staphylococcus aureus; conditions: Table 11
C. accolens ATCC 49725 = experiment: MIC/MLC assay against C. accolens ATCC 49725; assay type: cell-based; conditions: THyex broth with 1% Tween 80
C. accolens KPL 1818 = experiment: MIC/MLC assay against C. accolens KPL 1818; assay type: cell-based; conditions: THyex broth with 1% Tween 80
[1] = listed as diaminoheptane conjugate

Compound | M. luteus ATCC 10240 MIC (M. luteus ATCC 10240) | M. luteus ATCC 10240 MLC (M. luteus ATCC 10240) | S. pneumonia ATCC 27336 MIC (S. pneumoniae ATCC 27336) | S. pneumonia ATCC 27336 MLC (S. pneumoniae ATCC 27336) | S. aureus ATCC 25923 MIC (S. aureus ATCC 25923) | S. aureus ATCC 25923 MLC (S. aureus ATCC 25923) | C. accolens ATCC 49725 MIC (C. accolens ATCC 49725) | C. accolens ATCC 49725 MLC (C. accolens ATCC 49725) | C. accolens KPL 1818 MIC (C. accolens KPL 1818) | C. accolens KPL 1818 MLC (C. accolens KPL 1818) | also measured
C=C1NC(=O)[C@H](Cc2c[nH]c3ccccc23)NC(=O)[C@H](NC(=O)[C@H](CCCCN)NC(=O)[C@@H](N)Cc2ccccc2)CSC[C@@H](C(=O)N[C@H]2C(=O)N3CCC[C@H]3C(=O)NCC(=O)N[C@H](C(=O)N[C@@H](C)C(=O)N[C@@H](CCCNC(=N)N)C(=O)N/C(=C\C)C(=O)NCC(=O)N[C@@H]3CSC[C@@H]4NC(=O)[C@H](Cc5ccc(O)cc5)NC(=O)[C@@H](CSC[C@@H](C(=O)NCc5ccc(Cl)cc5)NC4=O)NC(=O)[C@H](CC(N)=O)NC(=O)[C@H](Cc4ccccc4)NC3=O)CS[C@H]2C)NC(=O)[C@H](CC(C)C)NC1=O [Mutacin 1140 - chlorophenylalanine] |  |  |  |  |  |  |  |  |  |  | MIC (μg/mL) M. luteus (M. luteus ATCC 10240; listed as chlorophenylalanine conjugate): 1.0 µg/mL (≈ 0.411 µM)
C=C1NC(=O)[C@H](Cc2c[nH]c3ccccc23)NC(=O)[C@H](NC(=O)[C@H](CCCCN)NC(=O)[C@@H](N)Cc2ccccc2)CSC[C@@H](C(=O)N[C@H]2C(=O)N3CCC[C@H]3C(=O)NCC(=O)N[C@H](C(=O)N[C@@H](C)C(=O)N[C@@H](CCCNC(=N)N)C(=O)N/C(=C\C)C(=O)NCC(=O)N[C@@H]3CSC[C@@H]4NC(=O)[C@H](Cc5ccc(O)cc5)NC(=O)[C@@H](CSC[C@@H](C(=O)NCc5ccc(Cl)c(Cl)c5)NC4=O)NC(=O)[C@H](CC(N)=O)NC(=O)[C@H](Cc4ccccc4)NC3=O)CS[C@H]2C)NC(=O)[C@H](CC(C)C)NC1=O [Mutacin 1140 - di-chlorophenylalanine] |  |  |  |  |  |  |  |  |  |  | MIC (μg/mL) S. pneumoniae (S. pneumoniae ATCC 27336; listed as di-chlorophenylalanine conjugate): 8.0 µg/mL (≈ 3.24 µM)
C=C1NC(=O)[C@H](Cc2c[nH]c3ccccc23)NC(=O)[C@H](NC(=O)[C@H](CCCCN)NC(=O)[C@@H](N)Cc2ccccc2)CSC[C@@H](C(=O)N[C@H]2C(=O)N3CCC[C@H]3C(=O)NCC(=O)N[C@H](C(=O)N[C@@H](C)C(=O)N[C@@H](CCCNC(=N)N)C(=O)N/C(=C\C)C(=O)NCC(=O)N[C@@H]3CSC[C@@H]4NC(=O)[C@H](Cc5ccc(O)cc5)NC(=O)[C@@H](CSC[C@@H](C(=O)NCCCCCCCN)NC4=O)NC(=O)[C@H](CC(N)=O)NC(=O)[C@H](Cc4ccccc4)NC3=O)CS[C@H]2C)NC(=O)[C@H](CC(C)C)NC1=O [Mutacin 1140 - diaminoheptane] |  |  |  |  |  |  |  |  |  |  | MIC (μg/mL) M. luteus (M. luteus ATCC 10240): 0.25 µg/mL (≈ 0.103 µM); MIC (μg/mL) M. luteus (M. luteus ATCC 10240; [1]): 0.5 µg/mL (≈ 0.206 µM); MIC (μg/mL) S. pneumoniae (S. pneumoniae ATCC 27336; [1]): 2.0 µg/mL (≈ 0.825 µM)
C=C1NC(=O)[C@H](Cc2c[nH]c3ccccc23)NC(=O)[C@H](NC(=O)[C@H](CCCCN)NC(=O)[C@@H](N)Cc2ccccc2)CSC[C@@H](C(=O)N[C@H]2C(=O)N3CCC[C@H]3C(=O)NCC(=O)N[C@H](C(=O)N[C@@H](C)C(=O)N[C@@H](CCCNC(=N)N)C(=O)N/C(=C\C)C(=O)NCC(=O)N[C@@H]3CSC[C@@H]4NC(=O)[C@H](Cc5ccc(O)cc5)NC(=O)[C@@H](CSC[C@@H](C(=O)NC)NC4=O)NC(=O)[C@H](CC(N)=O)NC(=O)[C@H](Cc4ccccc4)NC3=O)CS[C@H]2C)NC(=O)[C@H](CC(C)C)NC1=O [Mutacin 1140 - methylamine] |  |  |  |  |  |  |  |  |  |  | MIC (μg/mL) M. luteus (M. luteus ATCC 10240): 0.125 µg/mL (≈ 0.0538 µM); MIC (μg/mL) S. pneumoniae (S. pneumoniae ATCC 27336): 0.5 µg/mL (≈ 0.215 µM)
A12T:T14G: core peptide mutant of mutacin 1140, positions 12, 14 replaced by Threonine and Glycine (FKSWSLCTPGCTRGGSFNSYCC; ends and bridges not checked; cysteine pairing not given here; UniProt O68586 42-63, looked up, variant A12T T14G) | 0.25 micrograms per milliliter | 0.25 micrograms per milliliter | 2 micrograms per milliliter | 2 micrograms per milliliter | >32 micrograms per milliliter | >32 micrograms per milliliter | 0.125 micrograms per milliliter | 0.25 micrograms per milliliter | 0.5 micrograms per milliliter | 1 micrograms per milliliter | 
R13A:T14A: core peptide mutant of mutacin 1140, positions 13, 14 replaced by Alanine and Alanine (FKSWSLCTPGCAAAGSFNSYCC; UniProt O68586 42-63, looked up, variant R13A T14A) | 0.25 micrograms per milliliter | 0.5 micrograms per milliliter | 2 micrograms per milliliter | 2 micrograms per milliliter | 32 micrograms per milliliter | 32 micrograms per milliliter | 0.5 micrograms per milliliter | 0.5 micrograms per milliliter | 0.5 micrograms per milliliter | 0.5 micrograms per milliliter | 
S5A:A12S dehydrated: core peptide mutant of mutacin 1140, positions 5, 12 replaced by Alanine and Serine; dehydrated form (FKSWALCTPGCSRTGSFNSYCC; ends and bridges not checked; also: dehydrated form; UniProt O68586 42-63, looked up, variant S5A A12S) | 0.125 micrograms per milliliter | 0.25 micrograms per milliliter | 0.125 micrograms per milliliter | 0.125 micrograms per milliliter | 16 micrograms per milliliter | 32 micrograms per milliliter | 0.25 micrograms per milliliter | 0.25 micrograms per milliliter | 0.5 micrograms per milliliter | 1 micrograms per milliliter | 
S5A:A12S un-dehydrated: core peptide mutant of mutacin 1140, positions 5, 12 replaced by Alanine and Serine; un-dehydrated form (FKSWALCTPGCSRTGSFNSYCC; ends and bridges not checked; cysteine pairing not given here; UniProt O68586 42-63, looked up, variant S5A A12S) | 0.125 micrograms per milliliter | 0.25 micrograms per milliliter | 0.125 micrograms per milliliter | 0.125 micrograms per milliliter | 16 micrograms per milliliter | 16 micrograms per milliliter |  |  |  |  | 
